From patent US5461142A, “Phosphorylated derivatives of cardiodilatin/ANF peptides” (Pharma Bissendorf Peptide GmbH, priority 1987, dated 1995)
Entries after “also recorded” stand apart in the source; their conditions may differ. No end group written: not given here.

Tested on: rabbit aorta muscle strips
Assay: Bioactivity test: relaxation of norepinephrine-precontracted rabbit aorta muscle strips in organ bath
Type: cell-based, New Zealand rabbits
Conditions: for relaxation activity: Example 6, tested as in Example 5, corresponding concentrations
Method: Muscle strips of rabbit aorta were first contracted by the action of a solution of norepinephrine (10^-7 M). After constant conditions had been adjusted, the peptides were added (position of the arrow).
The muscle relaxation continues only after a further addition of unphosphorylated alpha-nANaP.
Aortae of New Zealand rabbits were prepared. The muscular tension was measured with a muscle strip in an organ bath containing physiological saline. The strips were pre-contracted with a solution of 10^-6 M of norepinephrin, then at fill relaxation. For the assay, a further contraction was induced with 10^-7 M of norepinephrin. After constant contraction conditions had been reached, the peptides were applied.
Alpha-hANaP was phosphorylated according to EXAMPLE 1 in the presence of ATP and the catalytic subunit according to EXAMPLE 1. For control, unphosphorylated alpha-hANaP was incubated under the same conditions, however in the absence of ATP. […] Stepwise addition of unphosphorylated, phosphorylated and in turn unphosphorylated alpha-hANaP allows clearly to recognize that only unphosphorylated alpha-hANaP exerts a significant relaxing effect in comparison to phosphorylated peptide. If the addition is reversed, first phosphorylated, then unphosphorylated and again phosphorylated alpha-hANaP, the corresponding reversed relaxation effect is found.
CDD-32 (Urodilatin) is phosphorylated according to Example 1 and investigated for its biological activity in the same manner as in Example 5.

Row | Substance | relaxation activity | effect onto the smooth vascular musculature (relaxation) (FIG. 5, strips contracted with norepinephrine 10^-7 M, peptide final concentration 0.3 to 0.6×10^-9 M) | muscle relaxation of precontracted rabbit aorta strips (FIG. 7 / Example 5, final concentration 0.3×10^-9 M, stepwise addition, listed as phosphorylated alpha-hANaP) | relative relaxation capability (FIG. 8, phosphorylated versus unphosphorylated form at corresponding concentration)
1 | Urodilatin [reference compound] | dose-dependant relaxation activity | – | – | –
2 | phosphorylated CDD-28: alpha-hANaP (positions 99-126 of gamma-hANaP) phosphorylated with c-AMP-dependent proteinkinase; formula I with R = H, X = phosphate (SLRRSSCFGGRMDRIGAQSGLGCNSFRY; ends and bridges not checked; also: phosphorylated (phosphate), site not given here; UniProt P01160 124-151, looked up) | – | only a slight relaxation | an effect next to nothing; also recorded: negligible effect | –
3 | phosphorylated CDD-32: CDD-32 (urodilatin, amino acids 95-126 of gamma-hANaP) phosphorylated according to Example 1 (TAPRSLRRSSCFGGRMDRIGAQSGLGCNSFRY; ends and bridges not checked; also: phosphorylated (phosphate), site not given here; UniProt P01160 120-151, looked up) | distinctly reduced relaxation | – | – | significantly lower relaxation capability than that of the unphosphorylated form
